The values that follow come from paper PMC12006963, “Application of Deuterium in an M1 Positive Allosteric Modulator Back-Up Program: The Discovery of VU6045422” (ACS Chemical Neuroscience, 2025).

Details of data set [1]: method as in doi:10.1002/alz.045339, doi:10.1016/j.jagp.2021.01.038. To be noted: humans, phase I, upon increasing dose of 1; cited from earlier work.
Data set [2] is described as follows: Hepatocyte metabolite identification (monkey). The format is in vitro ADME. To be noted: monkey hepatocytes; for % Total Peak Area, oxidative metabolite formed: 2 from 1, 4 from 3, 6 from 5. The procedure:
(§1) Prior to full characterization of deuterated analogues 3 and 5, they were incubated in rat, dog, monkey, and human hepatocytes, along with 1, to determine the amount of parent remaining, as well as the degree of undesired oxidative metabolites 2, 4, and 6 (Figure 2). […] For the gem-dideutero congener 3, metabolic stability was improved in vitro. […] Thus, in hepatocytes in vitro, the kinetic isotope effect engendered greater metabolic stability of the labile hot spot on the lactam. It remained to be seen if this effect would translate in vivo, but we first had to assess the impact of the deuterated analogues on molecular pharmacology, in vitro DMPK, standard low-dose in vivo DMPK and, if warranted, in vivo efficacy in a rat novel object recognition (NOR) behavioral assay.

Data set [3] can be described thus: Hepatocyte metabolite identification (human). Format: in vitro ADME. To be noted: human hepatocytes; for % Total Peak Area, oxidative metabolite formed: 2 from 1, 4 from 3, 6 from 5. How it is done: as §1
The nature of data set [4]: Hepatocyte metabolite identification (dog). The format is in vitro ADME. The note with it: dog hepatocytes; 2 from 1, 4 from 3, 6 from 5. The procedure:
as §1

In another data set the target is T1, M1 (Homo sapiens, UniProt P11229).
T1 construct: expressed in transfected cells
T1 sequence (P11229 1-460): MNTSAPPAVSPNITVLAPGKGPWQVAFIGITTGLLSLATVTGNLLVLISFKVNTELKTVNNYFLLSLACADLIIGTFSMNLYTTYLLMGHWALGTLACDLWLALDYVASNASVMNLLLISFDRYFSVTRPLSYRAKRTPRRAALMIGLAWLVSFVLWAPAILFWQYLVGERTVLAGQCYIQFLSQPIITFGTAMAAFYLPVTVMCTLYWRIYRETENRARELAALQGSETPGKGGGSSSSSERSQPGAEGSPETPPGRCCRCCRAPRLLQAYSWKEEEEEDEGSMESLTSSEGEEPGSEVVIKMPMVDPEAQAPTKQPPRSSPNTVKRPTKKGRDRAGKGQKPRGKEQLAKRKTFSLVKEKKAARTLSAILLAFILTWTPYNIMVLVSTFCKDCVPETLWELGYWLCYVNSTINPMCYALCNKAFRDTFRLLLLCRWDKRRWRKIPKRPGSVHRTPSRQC
The data set is described as follows: M1 PAM activity of oxidative metabolites. The format is cell-based. To be noted: in words. How it is done: Procedures for Biological Experiments
Calcium mobilization assays:
All functional cell-based assays were performed in stable Chinese Hamster Ovary (CHO) cell lines constitutively expressing human M5 or human M1 receptors. For full muscarinic selectivity, CHO cells expressing human M3, human M2 plus Gqi5 or human M4 plus Gqi5 were used. Cells were plated at 15,000 cells per 20 µL per well in black 384-well, TC-treated, clear-bottomed plates (Greiner) in Ham’s F12 medium supplemented with 10% FBS and 20 mM HEPES. Cells were incubated overnight at 37 °C under 5% CO2. The following day, the medium was removed and replaced with 1.2 µM Fluo-4 AM (Invitrogen) in assay buffer (Hank’s Balanced Salt Solution supplemented with 20 mM HEPES and 2.5 mM Probenecid, pH 7.4) and the cells were incubated for 50 minutes at 37 °C under 5% CO2. Dye was then removed and replaced with 20 µL of fresh assay buffer. Test compounds at a 10 mM concentration in DMSO were serially diluted in DMSO (either 1:3 or 1:5 dilution) to create a 10-point concentration series. The DMSO solutions were then diluted in assay buffer resulting in compound solutions at 2-times the final assay concentration with the highest assay concentration of 30 µM. The compound plate, cell plate, and plates containing EC20 and EC80 acetylcholine concentrations were placed in a Hamamatsu FDSS 6000 or 7000 kinetic imaging plate reader equipped to measure Ex480/Em540 fluorescence. Data were collected at 1 frame per second. After 2 seconds of collecting baseline fluorescence, 20 µL of the compound solutions were added to the cell plate. This was followed by the addition of an EC20 concentration of acetylcholine at 142 seconds. […] The fluorescence signal was collected for a total of 300 seconds. […] Data were imported and analyzed in Dotmatics Informatics software. by normalizing all data in the individual kinetic traces to the initial fluorescence read. The magnitude of each agonist addition was then determined and normalized to the average maximum response. […] The IC50 determined using the EC80 of acetylcholine is the value reported. […]

A short description of data set [5]: Hepatocyte metabolite identification (rat). Format: in vitro ADME. To be noted: rat hepatocytes; 2 from 1, 4 from 3, 6 from 5. The procedure:
as §1

A short description of data set [6]: Dog MTD with pharmacokinetics study. The format is in vivo. The note with it: dog MTD; for ratio AUC (%) / ratio Cmax (%): 6 relative to 5; for AUC / Cmax: plasma. An excerpt:
(§2) To this end, we prepared a 200 g lot of PAM 5 and performed, in parallel, a dog maximum tolerated dose (MTD) with a pharmacokinetics study and a 14-day rat exploratory toxicology and toxicokinetic study, quantifying plasma Cmax and AUC for both parent 5 and metabolite 6. […] Moreover, while exposure increased with dose, it was nonlinear. […] The series was terminated based on (1) poor and less than dose-proportional increases in systemic exposure, (2) lack of a kinetic isotope effect to diminish production of 6 in dogs and rats, and (3) strong likelihood of even higher concentrations of 6 to be present in man.

Data set [7] is described as follows: Rat 14-day exploratory toxicology and toxicokinetic study. Format: in vivo. The note with it: rat 14-day study; for ratio AUC (%) / ratio Cmax (%): 6 relative to 5.
Description: as §2

[8] abbreviates: day 14, 300 mg/kg PO of 5, plasma.
Where [9] appears, read: day 14, 750 mg/kg PO of 5, plasma.
Where [10] appears, read: day 14, 1500 mg/kg PO of 5, plasma.

A value given as a limit tells only on which side of the number the result lay.

`Cn1cc2c(-c3cc(F)c(CN4C(=O)c5cccnc5C4O)c(F)c3)cccc2n1` (stereo not shown) [compound 2]: the “share of the total drug-related area under the curve (AUC)” value in data set [1] is over 50%. Moreover, the “% Total Peak Area, oxidative metabolite formed” value (shortened to “% Total Peak Area”) in data set [2] came to 74.3%; in data set [3], 34.9%; in data set [4], 28.3%; in data set [5], 23.7%. The “M1 PAM activity” value on M1 is “inactive”.

Take `[2H]C1(O)c2ncccc2C(=O)N1Cc1c(F)cc(-c2cccc3nn(C)cc23)cc1F` (stereo not shown) [compound 4]: the “reduction in oxidative metabolite production versus 2 from 1” value is over 50% in data set [2] and 50% in data set [3]. Also, the “% Total Peak Area” value was 30.3% in data set [2], 15.2% in data set [3], 5.5% in data set [4] and 7.8% in data set [5]. Besides, on M1, the “M1 PAM activity” value is “inactive”.

Turning to `[2H]C1(O)c2ncccc2C(=O)N1Cc1c(F)cc(-c2cccc3nn(C([2H])([2H])[2H])cc23)cc1F` (stereo not shown) [compound 6], the “% Total Peak Area” value in data set [2] was 21%; in data set [2] (listed as VU6045587) it was 21.0%; in data set [3], 4.9%; in data set [4], 4.1%; in data set [5] it was 8.1%. The “ratio AUC (%)” value in data set [6] (30 mg/kg PO of 5) is recorded as 18%; in data set [6] (300 mg/kg PO of 5) it was 21%; in data set [6] (1000 mg/kg PO of 5) it was 19%; in data set [7] (day 14, 300 mg/kg PO of 5) it was 28%; in data set [7] (day 14, 750 mg/kg PO of 5), 23%; in data set [7] (day 14, 1500 mg/kg PO of 5) it was 28%. Moreover, the “ratio Cmax (%)” value in data set [6] (30 mg/kg PO of 5) is 19%; in data set [6] (300 mg/kg PO of 5), 23%; in data set [6] (1000 mg/kg PO of 5), 17%; in data set [7] (day 14, 300 mg/kg PO of 5), 30%; in data set [7] (day 14, 750 mg/kg PO of 5) it was 23%; in data set [7] (day 14, 1500 mg/kg PO of 5) it was 32%. Moreover, the AUC in data set [6] (30 mg/kg PO of 5) stood at 6240 ng·h/mL; in data set [6] (300 mg/kg PO of 5), 14100 ng·h/mL; in data set [6] (1000 mg/kg PO of 5), 19200 ng·h/mL. Also, the Cmax in data set [6] (30 mg/kg PO of 5) amounted to 455 ng/mL; in data set [6] (300 mg/kg PO of 5), 818 ng/mL; in data set [6] (1000 mg/kg PO of 5), 972 ng/mL. In addition, the figures for the AUC at 14 days in data set [7] (setting [8]) and in data set [7] (setting [9]) were 89500 ng·h/mL and 125000 ng·h/mL, respectively. The Cmax at 14 days was 6740 ng/mL in data set [7] (setting [8]), 7340 ng/mL in data set [7] (setting [9]) and 9890 ng/mL in data set [7] (setting [10]). For the same compound, the area under the curve (AUC) at 14 day in data set [7] (setting [10]) is 143000 ng·h/mL. Further, the “M1 PAM activity” value at M1 is “inactive”.

As a reminder, the AUC is concentration integrated over time. As a reminder, the Cmax is the highest concentration seen after dosing.
